Laboratory results taken from US9481743B2, “Polyelectrolyte polymers, their manufacture and use” (priority 2013, dated 2016).
“Also recorded” adds a separate entry of the source.

Key:
[1] = Static water contact angle of UV-cured phosphonium films with alumina microparticles; type: physicochemical
Protocol: Solution ^1H, ^19F{^1H} and ^31P{^1H} NMR spectra were recorded on a Varian INOVA 400 MHz spectrometer (^1H; 400.09 MHz, ^31P; 161.82 MHz, ^19F; 376.15 MHz). All samples for ^1H NMR spectroscopy were referenced to the residual protons in the deuterated solvents (^1H: chloroform-d 7.26; acetone-d6 2.05). ^31P{^1H} and ^19F{^1H} NMR spectroscopic chemical shifts were reported relative to external standards (85% H3PO4: 0.00 ppm and CF3C6H5: −63.9 ppm). Mass spectrometry (MS) measurements were recorded in positive and negative ion modes using an electrospray ionization (ESI) Micromass LCT spectrometer. Infrared spectra were recorded using a Bruker Tensor 27 spectrometer from Bruker Optics Inc. Samples were measured by attenuated total reflectance (ATR) infrared spectroscopy, using a zinc selenide crystal. Melting points were determined using a Gallenkamp Variable Heater in air. Scanning electron microscope images of the surfaces were obtained using a Hitachi S-4500 field emission instrument, operated at an electron beam voltage of 10 kV equipped with a Quartz Xone EDX system. AFM was performed on a Park Systems XE-100 in air with a relative humidity of ˜40%. […] Water contact angles were measured on a Kruss DSA 100 with DSA drop shape analysis software. Using an automated dispensing system, static 5 μL droplets of distilled water were deposited in different areas upon the surface. The contact angles were measured on the left and right side of each drop on at least ten droplets, resulting in a minimum of twenty angles per film. The reported contact angle is the average of all measurements.
The general procedure for film preparation and curing was as follows: the chosen phosphonium salt (95%) and 1-hydroxycyclohexylphenylketone (CPK, 5%) were dissolved in acetone. Microparticles (when included) were then added to the solution, the resulting mixture insonated in a sonic bath (Elasmonic E 60H, 100 Watts) for 10 minutes and then applied to pre-treated polyester sheets (DuPont) with a pipette. A #10 wire Meyer rod (Gardco) was used to spread the mixture evenly across the polyester substrate, producing a wet thickness of approximately 25 μm. A UV-curing conveyor (UV Process Supply) was set to allow a time exposure of ˜3 s (UV-light irradiance over this time frame was measured at 760 mJ/cm^2). The substrate with the uncured film was taped to a metal sheet and passed through the UV-conveyor.

[2] = Solubility/miscibility tests; type: physicochemical
Protocol: Approximately 5-10 mg of compound was added to a test tube followed by the addition of 1.5 mL of solvent followed by 5 seconds of gentle stirring. If dissolution was not observed immediately, the mixture was further stirred and sonicated for 30 seconds. Material was deemed soluble if the resulting solution was free of particulate and haze, determined by visual inspection. […] If solutions remained hazy, they were referred to as emulsion mixtures.

[3] = Water contact angle of UV-cured HDDA films containing HFPPS; type: physicochemical; conditions: UV-cured film
Protocol: Nuclear Magnetic Resonance (NMR) spectroscopy was conducted on a Varian INOVA 400 MHz spectrometer (^1H, 400.09 MHz, ^31P{^1H} 161.82 MHz, ^19F, 376.15 MHz). All ^1H spectra were referenced relative to tetramethyl silane (CDCl3; ^1H δH=7.26 ppm and CO(CD3)2; ^1H δH=2.04). The chemical shifts for ^31P{H} NMR spectroscopy were referenced using an external standard (85% H3PO4; δP=0). The chemical shifts for ^19F{^1H} NMR spectroscopy were also referenced using an external standard (trifluorotoluene; δF=−63.9 ppm). Infrared spectra were recorded using a Bruker Tensor 27 spectrometer using attenuated total reflectance mode (ATR) using a ZnSe crystal. Sonication of the UV curable formulations was conducted in an E60H Elmasonic sonicator at frequency of 37 kHz using an effective power of 100 W. Deposition of the formulation was performed using a 25-micron Meyer Rod purchased from Gardco on microscope slides purchased from Technologist Choice unless otherwise noted. UV curing was performed using a modified UV curing system purchased from UV Process and Supply Inc. with a mercury bulb. Samples were irradiated with an energy density of 1956 mJ/cm^2 and an irradiance of 1383 mW/cm^2. Water contact angles (WCA) were measured using a Kruss DSA100 Drop Shape Analyzer and analyzed using Drop Shape Analysis. Thermal degradation was determined using Thermal Gravimetric Analysis (TGA) on a Q600 SDT TA instrument. A sample of 5-15 mg was placed in an aluminum cup and heated at a rate of 10° C./min from room temperature to 600° C. under nitrogen atmosphere (100 mL/min). Glass transition temperatures were determined using Differential Scanning calorimetry (DSC) on a DSC Q20 TA instrument. A sample of approximately 10 mg was placed in an aluminum Tzero pan and underwent a heat/cool/heat profile at 10° C./min under nitrogen atmosphere (100 mL/min). Data was acquired from the final heat cycle of the heat/cool/heat profile. Melting points of all HFPS were determined using a Gallenkamp Variable Heater in air. Mass spectrometry was recorded in both positive and negative ion modes using electrospray ionization (ESI) Micromass LCT spectrometer. Elemental analysis (EA) was performed by the Elemental Analysis Laboratory at the Université de Montreal. Time-of-fight Secondary Ion Mass Spectrometry (TOF-SIMS) measurements were performed using an ION-TOF (Gmbh) TOF-SIMS IV equipped with a Bi cluster liquid metal ion source. A 25 keV Bi3^+ cluster primary pulsed ion beam (10 kHz, pulse width 20 ns) was used to bombard the surface to generate secondary ions. The positive or negative secondary ions were extracted from the sample surface, mass separated and detected via a reflectron-type time-of-flight analyser. Depth profiles were obtained by repeating the following cycle: sputtering an area of 500 μm×500 μm on the sample surface with a 3 keV Cs^+ ion beam for 0.5 s followed by, with a delay of 2 s, collecting mass spectra at 128×128 pixels with the Bi3^+ ion beam over an area of 245 μm×245 μm in the center of the sputtered area.
A desired amount of photoinitiator, crosslinker, and phosphonium salt were weighed and combined in screw top vials. The mixture was then insonated at 45° C. for 20 min until the solutions were free of particulate and haze. After cooling to room temperature, the solutions were cast on glass slides and irradiated with UV light three times.

Bacteria = test: Antimicrobial efficacy of [4]Cl films (same procedure, bacterium not given); type: cell-based
Protocol: A desired amount of 2-hydrox-2-methy-1-phenyl-propanone (5 wt %), diacrylate crosslinker (EB 130, a cyclic aliphatic diacrylate) and the acrylate-appended phosphonium salt were weighed and combined in screw top vials. The mixture was then insonated at 45° C. for 20 min until the solutions were free of particulate and haze. After cooling to room temperature, the solutions were cast on polyester films and irradiated with UV light three times. Leached films were treated with H2O (Milli-Q) in a wrist action shaker for 4 hours, followed by washing with H2O (2×10 mL) and air drying. Both leached and unleached films were subjected to the antibacterial test (below).
The antibacterial activities of the charged surfaces against Gram-negative bacteria Escherichia coli […] were studied using the antibacterial drop-test. E. coli precultured in 15 mL of nutrient broth (Difco™ BD) at 37° C. for 24 h, was washed by centrifuging at 4000 rpm for 10 min. After removing the supernatant, the cells were washed with phosphate buffered saline (PBS) twice and re-suspended and diluted to approximately 10^6 colony forming units (CFU)/mL in PBS solution. The samples were placed in sterilized Petri dishes. 100 μL of PBS solution with bacteria was added dropwise onto sterilized surfaces until completely covered. The petri dishes were sealed and placed in an incubator at 37° C. with the humidity 46%. After 4 hr, the bacteria were washed from the surface of the sample by using 10 mL PBS in the sterilized Petri dish. From this solution, 100 μL was spread onto solid plate count agar (Difco™ BD). After incubation for 24 h at 37° C., the number of surviving bacterial colonies on the Petri dishes were counted. The results after multiplication with the dilution factor were expressed as CFU per mL. The above experiments were carried out in triplicate for each sample. The percentage of killed bacteria was calculated as [(CFU of initial bacterial suspension−CFUs following surface contact)/CFU of initial bacterial suspension]×100.
As phosphonium content in the films increased, both an increase in surface charge density and bacterial activity was observed. […] The pronounced difference in films containing 25 and 30 wt % is believed to be due to differences in surface energy between EB 130 and the phosphonium salt. The non-polar nature of the crosslinking agent has lower surface energy than that of the phosphonium salt. […] Upon the addition of sufficient phosphonium salt, cations became present at the surface, as detected by the fluorescein dye experiment and exemplified by the increase in antibacterial efficacy. […] Films were prepared and analyzed following the same procedure.

[4] = Density of surface phosphonium cations by UV-vis (fluorescein dye); type: physicochemical
Protocol: Characterization by FTIR-ATR spectroscopy confirmed the conversion of acrylate functionality post polymerization. Percent cure was determined using a literature procedure. The intensity of the acrylate vibration at 810 cm^−1 was compared to the C═O vibration at 1750 cm^−1 both before and after irradiation. […] The density of surface phosphonium cations was determined by UV-vis spectroscopy as described in a literature procedure.
Characterization by FTIR-ATR spectroscopy confirmed the conversion of acrylate functionality post polymerization. […] The density of surface phosphonium cations was determined by UV-vis spectroscopy as described in a literature procedure^23. […] This assumes a 1:1 ratio of positive and negative charge on the surface.
Before deposition of [Au25L18]^−, the number of accessible charges on the PPF was quantified. A known protocol utilizing fluorescein dye was employed to determine the value for the above system and to relate this quantity back to the percentage of phosphonium monomers that were included in the original formulation.^23 This procedure is commonly used as a characterization technique for films containing surface-bound quaternary salts. […] At 30 wt %, a dramatic increase in the number of quaternary charges was observed (1.5×10^15 cations/cm^2). Increasing the salt content to 37.5 and 47.5 wt % yielded surfaces with 8.2×10^15 and 1.4×10^16 cations/cm^2, respectively. […] Use of low melting phosphonium salts permits formation of a formulation having low viscosity despite the high ion content, allowing for ease of handling and deposition. Use of high melting point organic salts in a similar fashion generates formulations with relatively high viscosities or significant solubility issues, which manifest themselves in poor films. Advantages of the phosphonium-based acrylate monomer in the fabrication of the charged surfaces can thus be seen.

[5] = film with 50 w % Al2O3 microparticles (±3)
[6] = particle-free UV-cured film of the salt with 5 w % CPK on polyester

Compound	WCA [1, 5] [°]	WCA [1, 6]	Solubility (in words) ([2]; chloroform)	Solubility (in words) ([2]; dichloromethane)	Water contact angle ([3]; 0.1 wt % in HDDA) [°]	Water contact angle ([3]; 0.5 wt % in HDDA) [°]	Water contact angle ([3]; 1 wt % in HDDA) [°]	Water contact angle ([3]; 1.5 wt % in HDDA) [°]	also measured
C=Cc1ccc(C[P+](CCC(F)(F)C(F)(F)C(F)(F)C(F)(F)F)(CCC(F)(F)C(F)(F)C(F)(F)C(F)(F)F)CC(C)CC(C)(C)C)cc1.[Cl-] (stereo not drawn) [[1]Cl]	88	≈ 80 °; also recorded: ≈ 90 °							
C=Cc1ccc(C[P+](CCC(F)(F)C(F)(F)C(F)(F)C(F)(F)C(F)(F)C(F)(F)F)(CCC(F)(F)C(F)(F)C(F)(F)C(F)(F)C(F)(F)C(F)(F)F)CC(C)CC(C)(C)C)cc1.[Cl-] (stereo not drawn) [[3]Cl]			soluble	soluble					
C=Cc1ccc(C[P+](CCC(F)(F)C(F)(F)C(F)(F)C(F)(F)F)(CCC(F)(F)C(F)(F)C(F)(F)C(F)(F)F)CCC(F)(F)C(F)(F)C(F)(F)C(F)(F)F)cc1.[Cl-] [[2]Cl]		≈ 80 °							
C=Cc1ccc(C[P+](CCC(F)(F)C(F)(F)C(F)(F)C(F)(F)F)(CCC(F)(F)C(F)(F)C(F)(F)C(F)(F)F)CCC(F)(F)C(F)(F)C(F)(F)C(F)(F)F)cc1.O=S(=O)([N-]S(=O)(=O)C(F)(F)F)C(F)(F)F [[2]NTf2]	141	≈ 90 °			89	91	92	92	Water contact angle ([3]; 0.05 wt % in HDDA): 80 °
C=Cc1ccc(C[P+](CCC(F)(F)C(F)(F)C(F)(F)C(F)(F)F)(CCC(F)(F)C(F)(F)C(F)(F)C(F)(F)F)CC(C)CC(C)(C)C)cc1.O=S(=O)([N-]S(=O)(=O)C(F)(F)F)C(F)(F)F (stereo not drawn) [[1]NTf2]			soluble	soluble	82	84	87	87	
C=CC(=O)OCCC[P+](CCCC)(CCCC)CCCC.[Cl-] [[4]Cl, (3-(acryloyloxy)propyl)tributylphosphonium chloride]									% Bacteria killed (Bacteria; 15% [4]Cl film): 18%; % Bacteria killed (Bacteria; 20% [4]Cl film): 18%; % Bacteria killed (Bacteria; 25% [4]Cl film): 71%; % Bacteria killed (Bacteria; 30% [4]Cl film): 71%; % Bacteria killed (Bacteria; 37.5% [4]Cl film): 75%; % Bacteria killed (Bacteria; 47.5% [4]Cl film): 100%; Charge/Unit area ([4]; 15% [4]Cl film): 0 ×10^x Y^+/cm^2; Charge/Unit area ([4]; 20% [4]Cl film): 5.6 × 10^14 ×10^x Y^+/cm^2; Charge/Unit area ([4]; 25% [4]Cl film): 3.46 × 10^15 ×10^x Y^+/cm^2; Charge/Unit area ([4]; 30% [4]Cl film): 9.07 × 10^15 ×10^x Y^+/cm^2; Charge/Unit area ([4]; 37.5% [4]Cl film): 1.24 × 10^16 ×10^x Y^+/cm^2; Charge/Unit area ([4]; 47.5% [4]Cl film): 2.54 × 10^16 ×10^x Y^+/cm^2
